According to ChEMBL document CHEMBL1201862, “PubChem BioAssay data set” (2004):
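48-hour exposure; five concentrations; linearly interpolated endpoints. GI50 marks 50% less growth.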 Activity calls are given as the source filed them. Rule as the data show it: active = GI50 up to about 1.1 µM and inactive = higher.

Key:
Assay in all cases: NCI anticancer screen, dose series, 48 h
OVCAR-8 = test system: OVCAR-8
K562 = test system: K562
MCF7 = test system: MCF7
UACC-62 = test system: UACC-62
PC-3 = test system: PC-3
U-251 = test system: U-251
BT-549 = test system: BT-549
MDA-N = test system: MDA-N
SF-268 = test system: SF-268
SK-MEL-5 = test system: SK-MEL-5
RPMI-8226 = test system: RPMI-8226
M14 = test system: M14
SNB-75 = test system: SNB-75
A549 = test system: A549
DU-145 = test system: DU-145
NCI-H23 = test system: NCI-H23
ACHN = test system: ACHN
HCT-116 = test system: HCT-116
SN12C = test system: SN12C
IGROV-1 = test system: IGROV-1
T47D = test system: T47D
SR = test system: SR
HOP-62 = test system: HOP-62
NCI/ADR-RES = test system: NCI/ADR-RES
UO-31 = test system: UO-31
RXF 393 = test system: RXF 393
NCI-H522 = test system: NCI-H522
HT-29 = test system: HT-29
SK-MEL-2 = test system: SK-MEL-2
OVCAR-3 = test system: OVCAR-3
SW-620 = test system: SW-620
EKVX = test system: EKVX
SNB-19 = test system: SNB-19
HOP-92 = test system: HOP-92
MDA-MB-231 = test system: MDA-MB-231
HCC 2998 = test system: HCC 2998
SF-539 = test system: SF-539
NCI-H226 = test system: NCI-H226
A498 = test system: A498
SK-MEL-28 = test system: SK-MEL-28
786-0 = test system: 786-0
HL-60 = test system: HL-60
OVCAR-5 = test system: OVCAR-5
HCT-15 = test system: HCT-15
CCRF-CEM = test system: CCRF-CEM
NCI-H460 = test system: NCI-H460
COLO 205 = test system: COLO 205
MDA-MB-435 = test system: MDA-MB-435
LOX IMVI = test system: LOX IMVI
MOLT-4 = test system: MOLT-4
Hs-578T = test system: Hs-578T
KM12 = test system: KM12
SF-295 = test system: SF-295
CAKI-1 = test system: CAKI-1
UACC-257 = test system: UACC-257
TK-10 = test system: TK-10
OVCAR-4 = test system: OVCAR-4
Malme-3M = test system: Malme-3M
SK-OV-3 = test system: SK-OV-3

Q: How did the GI50 (OVCAR-8) turn out when CN(C)Cc1cc(C(=O)/C=C/c2cccc(Cl)c2)cc(CN(C)C)c1O was run?
A: 8.55 µM (inactive)

Q: What about the GI50 (K562) of the same compound?
A: 2.91 µM (inactive)

Q: And the GI50 (MCF7)?
A: 4.44 µM (inactive)

Q: And the GI50 (UACC-62)?
A: 6.56 µM (inactive)

Q: What about the GI50 (PC-3) of the same compound?
A: 8.99 µM (inactive)

Q: What about the GI50 (U-251) of the same compound?
A: 2.74 µM (inactive)

Q: What about the GI50 (BT-549) of the same compound?
A: 9.64 µM (inactive)

Q: And the GI50 (MDA-N)?
A: 3.1 µM (inactive)

Q: What about the GI50 (SF-268) of the same compound?
A: 6.62 µM (inactive)

Q: And the GI50 (SK-MEL-5)?
A: 2.41 µM (inactive)

Q: And the GI50 (RPMI-8226)?
A: 2.69 µM (inactive)

Q: And the GI50 (M14)?
A: 3.37 µM (inactive)

Q: And the GI50 (SNB-75)?
A: 1.95 µM (inactive)

Q: And the GI50 (A549)?
A: 11.8 µM (inactive)

Q: And the GI50 (DU-145)?
A: 6.3 µM (inactive)

Q: What about the GI50 (NCI-H23) of the same compound?
A: 14.3 µM (inactive)

Q: What about the GI50 (ACHN) of the same compound?
A: 2.99 µM (inactive)

Q: What about the GI50 (HCT-116) of the same compound?
A: 3.21 µM (inactive)

Q: And the GI50 (SN12C)?
A: 3.39 µM (inactive)

Q: What about the GI50 (IGROV-1) of the same compound?
A: 3.27 µM (inactive)

Q: And the GI50 (T47D)?
A: 4.18 µM (inactive)

Q: What about the GI50 (SR) of the same compound?
A: 2.28 µM (inactive)

Q: And the GI50 (HOP-62)?
A: 3.65 µM (inactive)

Q: And the GI50 (NCI/ADR-RES)?
A: 18.5 µM (inactive)

Q: And the GI50 (UO-31)?
A: 5.78 µM (inactive)

Q: And the GI50 (RXF 393)?
A: 7.05 µM (inactive)

Q: What about the GI50 (NCI-H522) of the same compound?
A: 5.98 µM (inactive)

Q: What about the GI50 (HT-29) of the same compound?
A: 4.18 µM (inactive)

Q: And the GI50 (SK-MEL-2)?
A: 9.25 µM (inactive)

Q: What about the GI50 (OVCAR-3) of the same compound?
A: 2.67 µM (inactive)

Q: And the GI50 (SW-620)?
A: 4.41 µM (inactive)

Q: What about the GI50 (EKVX) of the same compound?
A: 7.03 µM (inactive)

Q: What about the GI50 (SNB-19) of the same compound?
A: 24.5 µM (inactive)

Q: What about the GI50 (HOP-92) of the same compound?
A: 4.31 µM (inactive)

Q: And the GI50 (MDA-MB-231)?
A: 2.75 µM (inactive)

Q: And the GI50 (HCC 2998)?
A: 10.6 µM (inactive)

Q: What about the GI50 (SF-539) of the same compound?
A: 6.14 µM (inactive)

Q: And the GI50 (NCI-H226)?
A: 4.31 µM (inactive)

Q: What about the GI50 (A498) of the same compound?
A: 3.22 µM (inactive)

Q: What about the GI50 (SK-MEL-28) of the same compound?
A: 4.16 µM (inactive)

Q: What about the GI50 (786-0) of the same compound?
A: 3.29 µM (inactive)

Q: What about the GI50 (HL-60) of the same compound?
A: 1.69 µM (inactive)

Q: And the GI50 (OVCAR-5)?
A: 5.69 µM (inactive)

Q: What about the GI50 (HCT-15) of the same compound?
A: 2.84 µM

Q: What about the GI50 (CCRF-CEM) of the same compound?
A: 2.07 µM (inactive)

Q: And the GI50 (NCI-H460)?
A: 3.05 µM (inactive)

Q: What about the GI50 (COLO 205) of the same compound?
A: 1.77 µM (inactive)

Q: And the GI50 (MDA-MB-435)?
A: 3.48 µM (inactive)

Q: What about the GI50 (LOX IMVI) of the same compound?
A: 2.24 µM (inactive)

Q: And the GI50 (MOLT-4)?
A: 3.43 µM (inactive)

Q: And the GI50 (Hs-578T)?
A: 11.4 µM (inactive)

Q: What about the GI50 (KM12) of the same compound?
A: 4.97 µM (inactive)

Q: What about the GI50 (SF-295) of the same compound?
A: 13.5 µM (inactive)

Q: And the GI50 (CAKI-1)?
A: 1.68 µM (inactive)

Q: And the GI50 (UACC-257)?
A: 5.56 µM (inactive)

Q: What about the GI50 (TK-10) of the same compound?
A: 9.2 µM (inactive)

Q: Which GI50 (OVCAR-8) does the source give for C=C(C)C(=O)O[C@H]1[C@H]2[C@H](OC(=O)[C@H]2C)[C@H](O)[C@@H](C)[C@@H]2C=CC(=O)[C@]21C here?
A: 1.94 µM (inactive)

Q: What about the GI50 (OVCAR-4) of the same compound?
A: 5.64 µM (inactive)

Q: And the GI50 (MCF7)?
A: 4.19 µM (inactive)

Q: What about the GI50 (UACC-62) of the same compound?
A: 1.77 µM (inactive)

Q: What about the GI50 (PC-3) of the same compound?
A: 4.51 µM (inactive)

Q: And the GI50 (U-251)?
A: 3.16 µM (inactive)

Q: And the GI50 (BT-549)?
A: 3.83 µM (inactive)

Q: What about the GI50 (MDA-N) of the same compound?
A: 2.58 µM (inactive)

Q: What about the GI50 (SF-268) of the same compound?
A: 3.4 µM (inactive)

Q: And the GI50 (Malme-3M)?
A: 2.18 µM (inactive)

Q: And the GI50 (SK-MEL-5)?
A: 5.47 µM (inactive)

Q: What about the GI50 (RPMI-8226) of the same compound?
A: 2.85 µM (inactive)

Q: And the GI50 (M14)?
A: 5.97 µM (inactive)

Q: And the GI50 (A549)?
A: 4.16 µM (inactive)

Q: What about the GI50 (DU-145) of the same compound?
A: 3.9 µM (inactive)

Q: What about the GI50 (NCI-H23) of the same compound?
A: 3.71 µM (inactive)

Q: And the GI50 (ACHN)?
A: 4.11 µM (inactive)

Q: What about the GI50 (SK-OV-3) of the same compound?
A: 5.9 µM (inactive)

Q: What about the GI50 (HCT-116) of the same compound?
A: 2.32 µM (inactive)

Q: And the GI50 (SN12C)?
A: 2.08 µM (inactive)

Q: What about the GI50 (IGROV-1) of the same compound?
A: 2.37 µM (inactive)

Q: What about the GI50 (T47D) of the same compound?
A: 4.78 µM (inactive)

Q: And the GI50 (SR)?
A: 1.73 µM (inactive)

Q: What about the GI50 (HOP-62) of the same compound?
A: 9.06 µM (inactive)

Q: And the GI50 (NCI/ADR-RES)?
A: 3.22 µM (inactive)

Q: And the GI50 (UO-31)?
A: 3.94 µM (inactive)

Q: What about the GI50 (RXF 393) of the same compound?
A: 1.22 µM (inactive)

Q: What about the GI50 (NCI-H522) of the same compound?
A: 1.2 µM (inactive)

Q: And the GI50 (HT-29)?
A: 3.33 µM (inactive)

Q: And the GI50 (SK-MEL-2)?
A: 4.13 µM (inactive)

Q: And the GI50 (OVCAR-3)?
A: 4.52 µM (inactive)

Q: What about the GI50 (SW-620) of the same compound?
A: 2.72 µM (inactive)

Q: What about the GI50 (EKVX) of the same compound?
A: 2.86 µM (inactive)

Q: What about the GI50 (SNB-19) of the same compound?
A: 4.93 µM (inactive)

Q: And the GI50 (HOP-92)?
A: 3.66 µM (inactive)

Q: What about the GI50 (MDA-MB-231) of the same compound?
A: 4.54 µM (inactive)

Q: What about the GI50 (HCC 2998) of the same compound?
A: 2.45 µM (inactive)

Q: What about the GI50 (SF-539) of the same compound?
A: 3.67 µM (inactive)

Q: And the GI50 (NCI-H226)?
A: 8.57 µM (inactive)

Q: And the GI50 (A498)?
A: 2.69 µM (inactive)

Q: What about the GI50 (SK-MEL-28) of the same compound?
A: 2.26 µM (inactive)

Q: And the GI50 (786-0)?
A: 2.49 µM (inactive)

Q: What about the GI50 (HL-60) of the same compound?
A: 0.692 µM (active)

Q: And the GI50 (OVCAR-5)?
A: 8.61 µM (inactive)

Q: And the GI50 (HCT-15)?
A: 2.04 µM

Q: And the GI50 (CCRF-CEM)?
A: 2.07 µM (inactive)

Q: What about the GI50 (NCI-H460) of the same compound?
A: 1.82 µM (inactive)

Q: And the GI50 (COLO 205)?
A: 3.27 µM (inactive)

Q: What about the GI50 (MDA-MB-435) of the same compound?
A: 2.56 µM (inactive)

Q: And the GI50 (LOX IMVI)?
A: 2.62 µM (inactive)

Q: What about the GI50 (MOLT-4) of the same compound?
A: 3 µM (inactive)

Q: And the GI50 (Hs-578T)?
A: 4.9 µM (inactive)

Q: What about the GI50 (KM12) of the same compound?
A: 2.51 µM (inactive)

Q: And the GI50 (SF-295)?
A: 4.63 µM (inactive)

Q: And the GI50 (CAKI-1)?
A: 2.55 µM (inactive)

Q: What about the GI50 (UACC-257) of the same compound?
A: 2.13 µM (inactive)

Q: And the GI50 (TK-10)?
A: 2.82 µM (inactive)
